Results published in patent US20250090699A1, “FAP TARGETING CYCLIC PEPTIDES AND CONJUGATES THEREOF” (Novartis AG, priority 2023, published 2025).
Starred links: 1 amine or outer side, 2 acyl side, 3 side chain; linkers in the order of their positions; H or OH if unused. Non-standard residues stand in square brackets, D forms with d. Residues, ends and D or L forms follow the SMILES beside them. Groups on a side chain read outwards from the residue. *: point of attachment. F(4amPEG2NHDOTA-Lu) = lutetium complex of (S)-2,2',2''-(10-(1-(4-(2-amino-2-carboxyethyl)phenyl)-3,12-dioxo-5,8-dioxa-2,11-diazatridecan-13-yl)-1,4,7,10-tetraazacyclododecane-1,4,7-triyl)triacetic acid (Phe with 4-aminomethyl-PEG2-DOTA-Lu), O=C([O-])CN1CCN(CC(=O)[O-])CCN(CC(=O)NCCOCCOCC(=O)NCc2ccc(C[C@H](N[*:1])C(=O)[*:2])cc2)CCN(CC(=O)[O-])CC1.[Lu+3]; COpipzaa = 4-(carboxymethyl)piperazine-1-carbonyl, O=C(O)CN1CCN(C(=O)*)CC1; DOTA = O=C(O)CN1CCN(CC(=O)O)CCN(CC(=O)*)CCN(CC(=O)O)CC1; Phe(4-CH2NH2) = NCc1ccc(C[C@H](N)C(=O)O)cc1; Piperazinyl(4-CH2COOH) = O=C(O)CN1CCN(*)CC1; NMeF = CN[C@@H](Cc1ccccc1)C(=O)O; Aoc(2) = CCCCCC[C@H](N)C(=O)O; Ahp(2) = CCCCC[C@H](N)C(=O)O; AEEA = NCCOCCOCC(=O)O; CO = O=C([*:1])[*:2]

Tests used:
[1] = biological target: T1, human FAP (Homo sapiens, UniProt Q12884); experiment: Enzymatic FAP competition assay (Z-Gly-Pro-AMC fluorescence), human FAP; format: biochemical; details: read-out: h. FAP, Enz., IC50
T1 construct: the biotinylated His, Avi tag, human FAP (26-760, FAP-H82Q6); His; Avi tag (biotinylated); purchased AcroBiosystems FAP-H82Q6
T1 sequence (Q12884 26-760): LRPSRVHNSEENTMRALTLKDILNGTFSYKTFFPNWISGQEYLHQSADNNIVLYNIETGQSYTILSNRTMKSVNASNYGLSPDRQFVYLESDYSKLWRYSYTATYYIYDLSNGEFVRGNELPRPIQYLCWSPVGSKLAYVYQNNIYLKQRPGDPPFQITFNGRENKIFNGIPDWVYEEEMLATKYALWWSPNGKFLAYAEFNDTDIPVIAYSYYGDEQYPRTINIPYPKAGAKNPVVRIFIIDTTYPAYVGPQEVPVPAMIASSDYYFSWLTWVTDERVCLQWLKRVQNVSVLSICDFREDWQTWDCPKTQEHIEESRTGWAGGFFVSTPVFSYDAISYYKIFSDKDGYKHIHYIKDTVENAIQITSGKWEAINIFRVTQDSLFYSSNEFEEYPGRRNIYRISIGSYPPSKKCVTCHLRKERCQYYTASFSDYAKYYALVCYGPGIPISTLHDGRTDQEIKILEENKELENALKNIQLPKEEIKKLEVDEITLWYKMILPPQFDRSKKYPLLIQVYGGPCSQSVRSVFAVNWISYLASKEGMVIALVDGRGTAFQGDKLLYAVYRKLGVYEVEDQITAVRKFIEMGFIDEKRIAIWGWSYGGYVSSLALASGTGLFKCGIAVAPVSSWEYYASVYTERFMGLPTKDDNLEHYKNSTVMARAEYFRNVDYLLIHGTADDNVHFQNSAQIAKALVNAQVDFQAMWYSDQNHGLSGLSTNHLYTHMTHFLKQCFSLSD
Summary of the method: (§1)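 Biotinylated His/Avi-tagged FAP ectodomain (human 26-760, mouse 26-761) at 0.01 nM, preincubated 24 h with peptides (14 concentrations, up to 1 μM) in pH 7.5 phosphate, 150 mM NaCl, 0.05% Tween20, 1% DMSO. Then 50 μM Z-Gly-Pro-AMC, 4 h at 22-24° C; AMC fluorescence (380/460 nm) gave IC50 from duplicate points.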

[2] = biological target: T2, mouse FAP (Mus musculus, UniProt P97321); experiment: Enzymatic FAP competition assay (Z-Gly-Pro-AMC fluorescence), mouse FAP; format: biochemical; details: read-out: m. FAP, Enz., IC50
T2 construct: biotinylated His, Avi tag, mouse FAP (26-761, FAP-M82Q5); His; Avi tag (biotinylated); purchased AcroBiosystems FAP-M82Q5
T2 sequence (P97321 26-761): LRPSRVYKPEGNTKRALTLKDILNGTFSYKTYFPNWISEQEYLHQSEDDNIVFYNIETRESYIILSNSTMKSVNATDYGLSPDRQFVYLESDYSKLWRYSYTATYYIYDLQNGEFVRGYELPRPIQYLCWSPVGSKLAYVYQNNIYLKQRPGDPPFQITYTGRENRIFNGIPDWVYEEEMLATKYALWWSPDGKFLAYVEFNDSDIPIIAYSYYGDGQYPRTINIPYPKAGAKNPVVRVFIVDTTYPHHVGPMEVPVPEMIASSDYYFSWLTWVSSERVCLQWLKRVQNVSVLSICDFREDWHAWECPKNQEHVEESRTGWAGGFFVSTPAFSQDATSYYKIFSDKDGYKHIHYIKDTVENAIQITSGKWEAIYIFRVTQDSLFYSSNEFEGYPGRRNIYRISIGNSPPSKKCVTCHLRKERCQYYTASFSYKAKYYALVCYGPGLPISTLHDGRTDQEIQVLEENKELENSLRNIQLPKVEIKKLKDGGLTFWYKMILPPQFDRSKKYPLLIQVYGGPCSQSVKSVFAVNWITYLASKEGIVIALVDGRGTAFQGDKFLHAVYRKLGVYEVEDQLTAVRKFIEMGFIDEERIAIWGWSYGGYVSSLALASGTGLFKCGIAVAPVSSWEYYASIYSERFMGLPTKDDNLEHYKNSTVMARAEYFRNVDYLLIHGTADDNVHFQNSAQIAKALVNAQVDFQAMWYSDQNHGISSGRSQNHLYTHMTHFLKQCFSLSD
Summary of the method: as §1

[3] = biological target: T1, human FAP; experiment: Surface plasmon resonance (SPR) for peptide affinity, human FAP; format: binding; details: read-out: h. FAP, SPR, KD
Protocol: Peptide affinities (KD) were determined by SPR using a Biacore™ 8K device (Cytiva) towards the following proteins: biotinylated His, Avi tag, human FAP (26-760, FAP-H82Q6), biotinylated His, Avi tag, mouse FAP (26-761, FAP-M82Q5), His tag, human DPP4 (34-766, DP4-H82E3), all purchased from AcroBiosystems and His tag, mouse DPP4 (29-760, 954-SE) from R&D Systems. The FAP proteins and their homologous were diluted to a concentration of 2 μg/mL into acetate buffer pH 5.5, then immobilized onto a CM5 sensorchip (Cytiva, BR-1005-30) to reach a response around 2000 R U. The running buffer HBS-EP+pH 7.6 (20× from Teknova CAT. No: H8022) contained 10 mM HEPES pH 7.6, 150 mM NaCl, 3 mM EDTA, 0.05% Tween20 and 2% DMSO. Experiments were carried out at 25° C. using a flow rate of 30 μL/min. Compounds were tested in single cycle kinetic mode at 8 different concentrations. Curve fitting was performed using the Biacore™ 8K evaluation software. The sensorgrams were fitted by applying a 1:1 binding model to calculate kinetic rate constants and equilibrium dissociation constants (KD).
For this assay, the setup had the same conditions (flow rate, running buffer, peptide dilution) as described above for the CM5 method. The oligo CAP reagent obtained in the CAPture Kit (Ref. 28920234) was 1/5 diluted into running buffer and used with a contact time of 300 s at a flow rate of 2 μL/min. The human and mouse FAP constructs described above were used (from AcroBiosystems or produced in house). The FAP proteins were diluted to a concentration of 2 μg/mL into acetate pH 5.5, 0.05% Tween20 and used with a contact time of 600 s at a flow rate of 10 μL/min. The peptides were tested with an association time of 280 s followed by a dissociation time of 3000 s at a flow rate of 30 μL/min. The regeneration was done using the regeneration solution (8 M guanidine-HCl, 1 M NaOH) as obtained with a contact time of 270 s at a flow rate of 10 μL/min. […] The compounds marked with an asterisk were tested against human and mouse DDP4.

[4] = biological target: T2, mouse FAP; experiment: Surface plasmon resonance (SPR) for peptide affinity, mouse FAP; format: binding
Summary of the method: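 Biotinylated His/Avi-tagged FAP ectodomains (human 26-760, mouse 26-761) captured or immobilized on Biacore sensor chips; peptides run at 25 °C in HBS-EP+ pH 7.6 with 2% DMSO, single-cycle kinetics, 8 concentrations. KD from 1:1 binding-model fit of sensorgrams.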

IC50 [1] [nM] | IC50 [2] [nM] | Kd [3] [nM] | Kd [4] [nM] | Compound
0.005 | 0.011 | < 0.005 | 0.011 | CCCCC[C@@H]1NC(=O)[C@H](Cc2ccc(O)cc2)NC(=O)[C@H](Cc2ccccc2)N(C)C(=O)CNC(=O)CNC(=O)[C@H]2CCCN2C(=O)[C@H](CC(=O)O)NC(=O)[C@H](Cc2ccc(OC)cc2)NC(=O)CNC(=O)[C@H](Cc2c[nH]c3ccccc23)NC1=O [Example A13, Gly-Gly-NMePhe-Tyr-Ahp-Trp-Gly-F(4OMe)-Asp-D-Pro] (cyclo([Ahp(2)]WGY(Me)D[dP]GG[NMeF]Y))
0.005 | 0.013 | < 0.011 | < 0.018 | CCCCCC[C@@H]1NC(=O)[C@H](Cc2ccc(CNC(=O)COCCOCCNC(=O)CN3CCN(CC(=O)O)CCN(CC(=O)O)CCN(CC(=O)O)CC3)cc2)NC(=O)[C@H](Cc2ccccc2)N(C)C(=O)CNC(=O)CNC(=O)[C@H]2CCCN2C(=O)[C@H](CC(=O)O)NC(=O)[C@H](CCCCNC(=O)N2CCN(CC(=O)O)CC2)NC(=O)CNC(=O)[C@H](Cc2c[nH]c3ccccc23)NC1=O [Example B1, Gly-Gly-NMePhe-F(4amPEG2NHDOTA)-Aoc-Trp-Gly-K(COpipzaa)-Asp-D-Pro] (cyclo(GG[NMeF][Phe(4-CH2NH2)]([AEEA-DOTA])[Aoc(2)]WGK([CO-Piperazinyl(4-CH2COOH)])D[dP]))
0.004 | 0.011 | < 0.011 | 0.024 | Gly-Gly-NMePhe-F(4amPEG2NHDOTA-Lu)-Ahp-Trp-Gly-K(COpipzaa)-Asp-D-Pro (cyclo(GG[NMeF][F(4amPEG2NHDOTA-Lu)][Ahp(2)]WGK(COpipzaa)D[dP]); also: Lu complex) [Example C13]
